Read-outs that look alike come from different tables or passages of the source.
Legend:
Format in all cases: cell-based
hKv7.2/3 = target: T1, hKv7.2/3 (Homo sapiens, UniProt O43525+O43526); assay: Kv7.2/7.3 HCS, FLIPR potassium (thallium) assay, CHO/hKv7.2/3
T1 construct: host or cells: CHO
Method: (§1) Cell culture: Chinese hamster ovary (CHO) cell-line cells with a constitutive expression of human Kv7.2/3 channels (B'SYS GmbH, Switzerland) were cultured in F-12 nutrient mixture (Biological Industries) supplemented with 10% fetal bovine serum (Biological Industries) and 1% penicillin-streptomycin (Biological Industries) in a humidified 5% CO2 incubator at 37° C. To maintain the stability of human Kv7.2/7.3 expression antibiotic selection was added (Puromycin 5 μg/ml).
High content screen (HCS) using FLIPR Potassium Assay Kit: A FLIPR Potassium Assay Kit (R8222 FLIPR Potassium Assay Explorer Kits, Molecular Devices) was used with the CHO/hKv7.2/3 cell line to screen molecules against the hKv7.2/7.3 ion channel target. The assay exploits the permeability of thallium ions (Tl+) through potassium (K+) channels. In this assay, Tl+ indicator dye is used to produce a bright fluorescent signal upon the binding to Tl+ conducted through the potassium channels. The intensity of the Tl+ signal is proportional to the number of potassium channels in the open state. Therefore, it provides a functional indication of the potassium channel activity. To activate the voltage-gate potassium channels, the cells were stimulated with a mixture of K+ and Tl+ to depolarize the cell membrane. The fluorescence increase in the assay represents the influx of Tl+ into the cell specifically through the potassium channel, providing a functional read-out of hKv7.2/3 activity using a fluorescent plate reader coupled with injectors used to activate the channels.
According to optimization process to achieve uniform and consistent screening conditions the following protocol was established: Cells were seeded in 384-well, black-walled, clear-bottomed Greiner #781091, at a density of 5000 cells per well 24 hours before the assay conductance and incubated overnight in their normal growth medium. On the experiment day the medium was replaced with HBSS, HEPES, and the test compound/vehicle (0.2% DMSO). Dye solution (prepared according to the manufacturer) was added to the plates, which were incubated for 1.5 h light-protected in room temperature. Tecan Spark reader plate injectors were primed with Tl+(1 mM Tl2SO4) or Tl++K+(1 mM Tl2SO4; 5 mM K2SO4) for channel activation and data correction. […] To calculate EC50 values, the data was fitted to sigmoidal regression using Prism GraphPad. The fitting was constrained to a minimum of 1 and a maximal response of about 3.6 unless a different maximal response could be clearly identified.

rat DRG neurons [1] = assay: Rat DRG neurons, capsaicin-evoked action potential firing; conditions: for Inhibition of capsaicin induced AP response: 100 nM
Excerpt: (§2) rDRGs isolation and primary cell culture: Briefly, rat DRGs from all spinal levels were carefully removed and collected in HBSS on ices, connective tissue of the epineurium surrounding the ganglion was removed and cells were dissociated using Collagenase-II and trypsin dissociation solutions. DRGs were dissociated further, passed through glass Pasteur pipettes to obtain single cells. Then dissociation solution was changed to 5% FBS containing DRG neuronal culture medium and plated onto ECL coated 12 mm cover glass.
(§3) Additional rDRGs experiments were performed using Lonza primary neonatal rat (Sprague Dawley neonatal; P2,3) DRG neurons (R-DRG-505, Lonza) plated and cultured according to the manufacturer.
(§4) Electrophysiology: Cells were used for electrophysiological recording at least 48 hours following rDRG isolation or at least 5 days following cryopreserved rDRG thawing. Round small neurons (20-40 μm in diameter) were selected for electrophysiology recordings, to select for small nociceptive neurons that propagate pain sensation in vivo and that are expressing both Kv7.2/3 and TRPV1 targets. Membrane excitability was monitored using current clamp configuration of the whole-cell patch-clamp technique. Positive current steps of different amplitude were injected (400 ms) to induce spikes trains before and following compound application.
To assess the potency of compounds using DRG neurons, the inhibitory potency for CAP-evoked action potential (AP) trains was measured. For this purpose, DRG membrane potential was continuously measured, and the following protocol was performed:
Cells were perfused with vehicle containing bath solution. After 30 seconds, CAP (1 μM) was applied for 6 seconds to activate TRPV1 and stimulate AP trains.
After 30 seconds of perfusion with bath solution containing only vehicle, perfusion was changed to a bath solution containing compound, and after 3 minutes of compound application, CAP (1 μM) was applied again for 6 seconds to activate TRPV1 and stimulate AP trains.
Cells perfusion was changed back to bath solution containing only vehicle and after 3 minutes of compound washout, CAP (1 μM) was applied again for 6 seconds to activate TRPV1 and stimulate AP trains.
To evaluate the drug/control response, the number of AP spikes induced by CAP following incubation with test compound was divided by the average number of control AP spikes induced without compound, before compound incubation, and following its washout.

rat DRG neurons [2] = assay: Rat DRG neurons, current-evoked action potential firing; conditions: for Inhibition of current induced AP response: 100 nM
Excerpt: as §2, §3, §4

hERG = hERG (Homo sapiens, UniProt Q12809); assay: hERG HCS, FLIPR potassium assay, CHO/hERG; design: host or cells: CHO; conditions: at highest concentration shown, Table 1
hERG, sequence (Q12809 whole entry): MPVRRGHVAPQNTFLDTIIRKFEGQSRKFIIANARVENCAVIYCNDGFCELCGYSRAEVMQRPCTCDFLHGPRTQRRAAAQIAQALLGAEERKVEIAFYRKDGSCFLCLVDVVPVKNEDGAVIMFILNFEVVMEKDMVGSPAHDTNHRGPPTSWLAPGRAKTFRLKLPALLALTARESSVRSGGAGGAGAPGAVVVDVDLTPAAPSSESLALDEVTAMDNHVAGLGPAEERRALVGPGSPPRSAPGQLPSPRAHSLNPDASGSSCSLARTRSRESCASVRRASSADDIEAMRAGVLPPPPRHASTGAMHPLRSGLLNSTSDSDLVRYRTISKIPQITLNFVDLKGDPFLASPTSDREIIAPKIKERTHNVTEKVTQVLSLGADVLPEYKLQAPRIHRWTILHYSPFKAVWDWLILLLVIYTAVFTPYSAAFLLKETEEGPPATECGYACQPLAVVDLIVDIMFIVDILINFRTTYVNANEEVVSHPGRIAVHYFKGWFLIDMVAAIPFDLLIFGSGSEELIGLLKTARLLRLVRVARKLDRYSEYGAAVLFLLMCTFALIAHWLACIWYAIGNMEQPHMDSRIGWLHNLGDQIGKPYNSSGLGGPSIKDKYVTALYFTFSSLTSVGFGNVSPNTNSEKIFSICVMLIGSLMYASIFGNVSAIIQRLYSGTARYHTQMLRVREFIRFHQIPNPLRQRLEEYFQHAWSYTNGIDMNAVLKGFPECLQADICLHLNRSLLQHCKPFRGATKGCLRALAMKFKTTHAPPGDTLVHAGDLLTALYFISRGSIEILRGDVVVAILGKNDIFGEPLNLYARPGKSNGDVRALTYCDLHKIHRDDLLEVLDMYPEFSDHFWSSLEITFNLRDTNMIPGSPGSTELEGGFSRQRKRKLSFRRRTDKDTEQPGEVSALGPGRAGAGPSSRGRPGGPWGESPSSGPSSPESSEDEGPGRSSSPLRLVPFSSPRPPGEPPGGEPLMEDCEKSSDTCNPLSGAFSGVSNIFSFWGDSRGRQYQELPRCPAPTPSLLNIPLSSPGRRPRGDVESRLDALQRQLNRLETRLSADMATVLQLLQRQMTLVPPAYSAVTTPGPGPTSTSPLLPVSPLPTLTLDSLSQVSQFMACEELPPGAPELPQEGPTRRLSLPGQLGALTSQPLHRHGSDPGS
Method: as §1, with “hERG” for “Kv7.2/3”, “the hERG expression” for “the”, “the CHO cell line, antibiotics” for “human Kv7.2/7.3 expression antibiotic”, “selection (G418 […] and Hygromycin 500)” for “selection”, “applied.” for “added (Puromycin 5 μg/ml).”
FLIPR Potassium Assay Kit: The FLIPR Potassium Assay Kit (R8222 FLIPR Potassium Assay Explorer Kits, Molecular Devices) was used with CHO/hERG cell line, for screening compounds against the hERG ion-channel off-target, as detailed hereinabove.
According to optimization process, to achieve a uniform and consistent screening condition of molecules, the following protocol was established: Cells were seeded in 384-well, black-walled, clear-bottomed, at a density of 7,500 cells per well 24 hours before the assay conductance and incubated overnight in their normal growth medium. On the experiment day the medium was replaced with HBSS, HEPES, and the tested compound/vehicle (0.2% DMSO). Dye solution (prepared according to the manufacturer) was added to the wells and plates were incubated for 1.5 hour light-protected in room temperature. The Tecan Spark plate-reader injectors were primed with Tl+(1 mM Tl2SO4) or Tl++K+(1 mM Tl2SO4; 10 mM K2SO4) for channel activation and data correction. […]. To calculate IC50 values, the data was fitted to sigmoidal regression using Prism GraphPad.

hTRPV1 [3] = target: T2, hTRPV1 (Homo sapiens, UniProt Q8NER1); assay: hTRPV1 dual activity electrophysiology, CHO cells co-expressing hKv7.2/3 and hTRPV1; conditions: with hKv7.2/3 activation
T2 construct: CDS of NM_080704.4, inserted into the multiple cloning site of pcDNA3.1(+); host or cells: CHO/hKv7.2/3
T2 sequence (Q8NER1 whole entry): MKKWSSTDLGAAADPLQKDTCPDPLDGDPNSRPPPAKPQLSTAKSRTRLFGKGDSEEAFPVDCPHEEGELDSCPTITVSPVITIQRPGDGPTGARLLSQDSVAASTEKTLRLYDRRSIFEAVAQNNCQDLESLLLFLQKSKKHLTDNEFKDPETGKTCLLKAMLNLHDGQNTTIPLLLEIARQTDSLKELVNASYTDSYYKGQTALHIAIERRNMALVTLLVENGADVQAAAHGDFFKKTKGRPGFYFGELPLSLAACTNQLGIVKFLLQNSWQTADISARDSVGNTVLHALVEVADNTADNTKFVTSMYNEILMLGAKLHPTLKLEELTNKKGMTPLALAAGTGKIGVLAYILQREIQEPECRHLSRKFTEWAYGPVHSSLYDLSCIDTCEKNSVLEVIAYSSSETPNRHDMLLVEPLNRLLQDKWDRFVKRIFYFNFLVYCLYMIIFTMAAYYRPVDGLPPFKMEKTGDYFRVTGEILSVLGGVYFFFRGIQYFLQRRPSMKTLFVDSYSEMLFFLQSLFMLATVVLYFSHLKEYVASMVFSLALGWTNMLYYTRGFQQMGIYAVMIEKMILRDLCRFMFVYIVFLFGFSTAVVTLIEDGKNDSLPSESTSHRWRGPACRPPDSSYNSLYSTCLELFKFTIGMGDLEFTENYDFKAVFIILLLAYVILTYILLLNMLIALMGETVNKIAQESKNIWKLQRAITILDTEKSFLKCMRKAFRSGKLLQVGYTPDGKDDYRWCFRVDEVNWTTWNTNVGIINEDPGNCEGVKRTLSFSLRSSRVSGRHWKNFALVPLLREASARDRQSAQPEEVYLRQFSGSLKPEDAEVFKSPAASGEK
Method: Cell culture and DNA transfection: CHO/hKv7.2/3 cells were transfected with hTRPV1 DNA constructs (CDS of NM_080704.4, inserted into the multiple cloning site of pcDNA3.1(+) between the Hind III and BamH I restriction site, Genscript). For CHO transfection, 1×10^6 cells were suspended in a reaction mix (Amaxa™ 4D-Nucleofector™-LONZA) containing 5 μg of hTRPV1 DNA and 0.5 μg of GFP DNA (for cells selection) in a cuvette.
The cells were transformed (Amaxa, DT-133 program for CHO transfection with p-3 Kit) and recovered for 10 minutes at RT in the hood. Then cells were re-suspended in a 10 mL antibiotic (Ab)-free medium suspension and were plated on Gelatin or PLL-coated cover glass in different cell densities. On the next morning, the medium was changed to full medium containing the CHO/hKv7.2/3 cell line selection antibiotics.
Extracellular (Bath) solution: The solution was composed of (in mM): NaCl, 140; KCl, 4; CaCl2, 1.8; MgCl2, 1.2; Glucose, 11; HEPES, 5.5. pH was adjusted to 7.3 with NaOH. Osmolarity was adjusted to 310 mOsm with Sucrose.
Intracellular (Pipette) solution: Pipettes were pulled from borosilicate glass (Warner Instrument Corp, USA) with a resistance of 3-7 MΩ and were filled with internal solution composed of (in mM): KCl, 130; MgCl2, 1; K ATP, 5; EGTA, 5; HEPES, 10. pH was adjusted to 7.3 with KOH. Osmolarity was adjusted to 290 mOsm with Sucrose.
A programmable valve-linked pressurized perfusion system was used for local application of compounds nearby the cell recorded in a consistent flow rate of 2-3 mL/minute. Series resistance was corrected and data were sampled at 5 kHz and low pass filtered at 2.4 kHz using MultiClamp 700B amplifier with pCLAMP11 software (Molecular Devices, USA).
At least 48 hours following cell transfection and plating, cells were recorded to assess the TRPV1 dual activity. Membrane potential was held at −90 mV. To measure the inhibitory effects of the tested compounds on hTRPV1 dual activity the following protocol was performed:
Cells were perfused with vehicle-only containing bath solution. After 30 seconds, a single −40 mV 1.5 second step was applied for Kv7.2/3 activation and 30 seconds later capsaicin (1 μM) was applied for 6 seconds to activate the TRPV1.
Cells perfusion was changed to a compound-containing bath solution, and after 2 minutes and 30 seconds of compound application, a single −40 mV 1.5 second step was applied for Kv7.2/3 activation and 30 seconds later capsaicin (1 μM) was applied for 6 seconds to activate the TRPV1.
Cells perfusion was thereafter changed back to vehicle only-containing bath solution. After 30 seconds, a single −40 mV 1.5 step was applied for Kv7.2/3 activation and 30 seconds later capsaicin (1 μM) was applied for 6 seconds to activate the TRPV1 followed by a capsaicin wash out.
The drug current response, when capsaicin was injected following 3 minutes of pre-incubation with the test compound, was divided by the averaged control currents, induced without compound, before compound incubation and following its washout, to evaluate the drug/control response.

CHO-K1 cells = assay: In vitro micronucleus; conditions: Plate 3 without S9, 24 hours
Method: The micronucleus assay was performed according to the regulatory guidelines. In brief, CHO-K1 cells were plated at 10000 cells/well in 3 plates and incubated In CHO-K1 growth medium (containing F12K, 10% FBS and 1% PS) overnight.
As a control for the S9 treatment, plate No. 1, cells were treated with cyclophosphamide as a positive control, for 3 hours. For plate No. 2, without S9 treatment, cells were treated with mitomycin C as a positive control, compounds for 3 hours, and for plate No. 3, without S9 treatment, cells were treated with bleomycin sulfate as a positive control continuously for 24 hours.
On the following day, 6 μg/mL of cytochalasin B were added to each well and plates were further incubated overnight. In the day after medium was replaced with a combined 10 μg/mL Hoechst dye solution and 0.5 μM calcein-AM in 100 μL warm DPBS for 30 minutes and the plates were scanned using CQ1 high-content analysis system.

hTRPV1 [4] = target: T2, hTRPV1; assay: TRPV1 HCS, Fluo-8 calcium flux, capsaicin activation, CHO cells expressing hTRPV1
Method: as §1, with “with” for “with a”, “hTRPV1” for “Kv7.2/3”, “stable expression” for “stability”, “hTRPV1,” for “human Kv7.2/7.3 expression”, “selection (G418 500 μg/ml)” for “selection”, “applied.” for “added (Puromycin 5 μg/ml).”
High content screen (HCS) using Fluo-8 No Wash Calcium flux Assay Kit: Fluo-8 No Wash Calcium Assay Kit (Abcam, ab112129) was used with CHO stably or transiently expressing TRPV1 to screen compounds against the hTRPV1 ion channel target. The cells were pre-loaded with Fluo-8AM which is membrane permeable. The AM groups of the Fluo-8AM were then being cleaved by intracellular esterase, trapping the Fluo8 in the cell. […] The relative fluorescence signal was calculated following background subtraction, comparing the fluorescence at each time point to its maximal level measured following Ionomycin application in the end.
According to optimization process to achieve uniform and consistent screening condition of molecules the following protocol was established: Cells were seeded in 384-well, black-walled, clear-bottomed, at a density of 5,000 cells per well 24 h before the assay conductance and incubated overnight in their normal growth medium. On the experiment day the medium was replaced in each well with HBSS, HEPES, and compound/vehicle (0.2% DMSO). Dye solution (prepared according to the manufacturer) was added to the wells and plates are incubated for 1.5 h light-protected in room temperature. The Tecan Spark plate reader injectors were then primed with capsaicin and Ionomycin for channel activation and data normalization, respectively. […] To calculate IC50 values, the data was fitted to sigmoidal regression line using Prism GraphPad. The fitting was constrained to a minimum of 0 and a maximal response of about 1 unless a different maximal response could be identified.

T1 sequence (O43525 whole entry): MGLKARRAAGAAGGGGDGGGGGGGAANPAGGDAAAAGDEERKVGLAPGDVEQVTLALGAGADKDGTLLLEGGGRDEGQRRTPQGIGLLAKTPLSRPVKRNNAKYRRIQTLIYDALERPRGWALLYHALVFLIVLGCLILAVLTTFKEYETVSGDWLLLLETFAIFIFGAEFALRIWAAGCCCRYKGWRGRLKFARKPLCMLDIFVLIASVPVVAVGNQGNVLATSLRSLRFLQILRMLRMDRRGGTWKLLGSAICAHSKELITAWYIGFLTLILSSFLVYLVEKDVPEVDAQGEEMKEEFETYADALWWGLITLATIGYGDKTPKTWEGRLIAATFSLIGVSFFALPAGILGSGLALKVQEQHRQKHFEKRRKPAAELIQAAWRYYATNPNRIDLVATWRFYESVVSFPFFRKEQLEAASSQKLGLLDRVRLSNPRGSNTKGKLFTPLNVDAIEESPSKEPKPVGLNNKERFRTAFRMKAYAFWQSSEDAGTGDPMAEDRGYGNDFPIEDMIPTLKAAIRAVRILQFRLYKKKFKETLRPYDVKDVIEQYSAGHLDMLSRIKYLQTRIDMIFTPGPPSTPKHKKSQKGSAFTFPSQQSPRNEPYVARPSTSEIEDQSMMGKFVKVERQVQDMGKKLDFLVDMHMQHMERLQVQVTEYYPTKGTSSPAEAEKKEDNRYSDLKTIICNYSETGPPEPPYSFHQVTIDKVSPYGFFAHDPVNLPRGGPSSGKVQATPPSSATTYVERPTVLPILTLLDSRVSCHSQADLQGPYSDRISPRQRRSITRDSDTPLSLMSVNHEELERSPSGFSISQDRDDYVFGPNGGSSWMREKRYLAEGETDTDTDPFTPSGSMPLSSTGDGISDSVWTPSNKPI
T1 sequence (O43526 whole entry): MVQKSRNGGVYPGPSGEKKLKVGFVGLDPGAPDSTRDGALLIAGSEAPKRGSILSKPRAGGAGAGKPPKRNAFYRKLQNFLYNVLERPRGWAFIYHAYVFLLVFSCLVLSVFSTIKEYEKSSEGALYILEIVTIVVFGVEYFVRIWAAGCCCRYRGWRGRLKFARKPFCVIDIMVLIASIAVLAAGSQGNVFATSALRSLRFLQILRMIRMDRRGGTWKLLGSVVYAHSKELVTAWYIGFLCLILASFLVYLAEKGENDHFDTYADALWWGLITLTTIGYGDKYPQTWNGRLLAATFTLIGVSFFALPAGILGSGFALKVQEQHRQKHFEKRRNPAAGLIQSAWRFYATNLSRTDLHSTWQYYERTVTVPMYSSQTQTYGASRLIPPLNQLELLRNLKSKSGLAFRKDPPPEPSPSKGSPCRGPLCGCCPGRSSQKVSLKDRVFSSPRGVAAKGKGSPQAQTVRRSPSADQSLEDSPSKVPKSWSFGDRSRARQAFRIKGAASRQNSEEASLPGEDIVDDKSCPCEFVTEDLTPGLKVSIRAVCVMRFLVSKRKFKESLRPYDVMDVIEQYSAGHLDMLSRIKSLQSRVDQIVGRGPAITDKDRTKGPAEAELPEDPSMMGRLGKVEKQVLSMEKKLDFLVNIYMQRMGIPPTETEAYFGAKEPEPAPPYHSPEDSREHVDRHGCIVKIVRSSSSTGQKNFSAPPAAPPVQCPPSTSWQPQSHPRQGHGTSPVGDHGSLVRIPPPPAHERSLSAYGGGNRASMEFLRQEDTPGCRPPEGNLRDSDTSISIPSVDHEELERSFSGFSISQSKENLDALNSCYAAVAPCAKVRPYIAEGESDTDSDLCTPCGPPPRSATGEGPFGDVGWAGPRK

Compound: CC(C)c1cc(Cl)cc(Cl)c1C(O)c1ccc(F)c(CC(=O)NCC2(O)CCC2)c1 (racemic) [Compound 533 racemic]
- EC50 (hKv7.2/3; Table 1, read-out: Kv7.2/7.3 IC50): 1500 nM
- Inhibition of capsaicin induced AP response (rat DRG neurons [1]): highly potentiating capsaicin induced AP inhibition
- Inhibition of current induced AP response (rat DRG neurons [2]): reduced current induced AP inhibition
- hERG IC50 (inhibition in parentheses) (hERG): 0%

Compound: CC(C)(C)c1ccc(/C=C/C(=O)Nc2ccc3c(c2)OCCO3)cc1 [AMG9810, reference compound]
- Inhibition of capsaicin evoked firing (rat DRG neurons [1]; 50 nM): about 50%
- Current evoked response (rat DRG neurons [2]; 50 nM): remains unchanged
- hTRPV1 inhibition potency, Kv7.2/3 co-expressed and activated (hTRPV1 [3]): failure to gain TRPV1-inhibition potency

Compound: Bleomycin sulfate [reference compound]
- Micronucleus response Absolute MEC (CHO-K1 cells): >28 µM
- CC50 (CHO-K1 cells; read-out: Cytotoxicity (%) Absolute EC50): 1590 nM

Compound: CC(C)c1cc(Cl)cc(Cl)c1C(O)c1ccc(F)c(CC(=O)NCC2(O)CCC2)c1 (single isomer, unassigned) [Compound 533p2]
- Kv7.2/3 activation (words) (hKv7.2/3): higher
- Kv7.2/3 activation (words) (hKv7.2/3; listed as 533P2): more potent activation of Kv7.2/3
- Inhibition of capsaicin induced AP response (rat DRG neurons [1]; 0.1 µM): facilitated
- Inhibition of capsaicin induced AP response (rat DRG neurons [1]; listed as 533P2, 0.1 µM): potentiates capsaicin induced AP
- Inhibition of current induced AP response (rat DRG neurons [2]; 0.1 µM): inhibits the current-evoked rat DRGs spiking
- Inhibition of current induced AP response (rat DRG neurons [2]; listed as 533P2, 0.1 µM): inhibits current induced AP
- TRPV1 modulation (words) (hTRPV1 [4]): activates hTRPV1
- TRPV1 modulation (words) (hTRPV1 [4]; listed as 533P2): activating TRPV1

Source: patent US20260327211A1, “MODULATORS OF A POTASSIUM CHANNEL AND OF TRPV1 CHANNEL AND USES THEREOF” (Bsense Bio Therapeutics Ltd., priority 2023, published 2026)
